“Also recorded” adds a separate entry of the source. Like-named read-outs stand apart in the source and are kept apart here.
Tests used:
[1] = system: primary neutrophils; test: Multi-parametric biophysical (impedance) profiling of primary neutrophils treated with stimuli; type: cell-based, human; details: for cell size: 2 hr treatment vs control (FIG. 13B, E); for correlation between CD66b expression and cell size: Example 5 (FIG. 20); for electrical size (cell size): 2 hr treatment (FIG. 17D); for electrical deformability index: 2 hr treatment vs untreated neutrophils (FIG. 17F); for UMAP projection of biophysical features (shift vs control): Example 6, 10 biophysical features (FIG. 21); for nucleus opacity (|Z|12 MHz/|Z|0.3 MHz): 2 hr treatment (FIG. 17G)
[2] = system: primary neutrophils; test: Flow cytometric analysis of neutrophil activation markers and F-actin; type: cell-based, human; details: for CD11 b expression / CD66b expression: Example 4, 2 hr treatment (FIG. 14)
Experimental: The staining protocols for leukocyte identification are similar as previously described^50. The samples were stained for 30 min at 4° C. with FITC-labelled anti-human CD11 b and allophycocyanin (APC)-labelled anti-human CD66b antibodies. Non-specific antibody binding was examined using corresponding isotype negative control antibodies. The cells were washed once prior to flow cytometry analysis. All antibodies were purchased from eBioscience (1:20 dilution) and analyzed using a BD LSR Fortessa flow cytometer (BD Biosciences).

[3] = system: HL-60 (leukemia cell lines); type: cell-based
[4] = system: HL-60; test: Immunostaining and flow cytometric analysis of F-actin in HL-60; type: cell-based; details: treated HL-60 vs control (FIG. 10 B, D, E)
Text: The effect of cytoskeleton disruptors, such as cytochalasin D (CytoD) and latrunculin B (LatB), on HL-60 deformability, was studied (FIG. 10 A-E).

[5] = system: primary neutrophils; test: Annexin V/Propidium iodide (PI) live-dead staining, flow cytometry; type: cell-based, human; details: Example 5; STS 1 μM, 2 hr (FIG. 18)
[6] = HL-60 treated with cytoskeleton disruptor vs DMSO treated control (FIG. 10)

Molecule	cell size ([1]; Example 4)	correlation between CD66b expression and cell size [1]	electrical size (cell size) ([1]; Example 5)	electrical deformability index ([1]; Example 5)	UMAP projection of biophysical features (shift vs control) [1]	CD11 b expression [2]	CD66b expression [2]	electrical deformability index [3, 6]	F-actin expression [4]	nucleus opacity (|Z|12 MHz/|Z|0.3 MHz) ([1]; Example 5)	other results
CSCC[C@H](NC=O)C(=O)N[C@@H](CC(C)C)C(=O)N[C@@H](Cc1ccccc1)C(=O)O [fMLP, N-Formylmethionyl-leucyl-phenylalanine]	larger than control	increase in CD66b expression with cell size	increased	negligible changes	smaller shifts in different directions	elevated expressions	elevated expressions				electrical deformability (deformability index) ([1]; Example 4, 2 hr, fMLP 1 μM, glucose 30 mM, PMA 200 nM, vs untreated control (FIG. 13D)): stiffer cell properties; F-actin expression (MFI) ([2]; Example 5, 2 hr treatment (FIG. 17C)): highest F-actin expression; also recorded: increased F-actin expression
paraformaldehyde [PFA]											cell size [3]: smaller cell size; electrical deformability index [3]: lower than untreated control
C=C1[C@@H](C)[C@H]2[C@H](Cc3ccccc3)NC(=O)[C@]23[C@H](OC(C)=O)/C=C/[C@@](C)(O)C(=O)[C@@H](C)C/C=C/[C@H]3[C@@H]1O [cytochalasin D]								higher electrical deformability index	decreased F-actin expression		
CCCCCCCCCCCCCC(=O)O[C@@H]1[C@@H](C)[C@@]2(O)[C@@H](C=C(CO)C[C@]3(O)C(=O)C(C)=C[C@@H]23)[C@@H]2C(C)(C)[C@]12OC(C)=O [PMA, Phorbol Myristate Acetate]	larger than control	increase in CD66b expression with cell size	largest increase in cell size	more deformable	strong biophysical changes	elevated expressions	elevated expressions			significant decrease in nucleus opacities	impedance profile (cell size / opacity clusters) ([1]; Example 4, PMA 200 nM, 2 hr): two distinct clusters; impedance profile (cell clusters / populations) ([1]; Example 5, PMA 200 nM, 2 hr (FIG. 19)): two distinct cell clusters; also recorded: two distinct cell populations of different size and deformability
CN[C@@H]1C[C@H]2O[C@@](C)([C@@H]1OC)n1c3ccccc3c3c4c(c5c6ccccc6n2c5c31)C(=O)NC4 [STS, Staurosporine]					strong biophysical changes					higher nucleus opacity	membrane opacity ([1]; Example 5, 2 hr treatment vs control (FIG. 17E)): significant increase in membrane opacity; Annexin V / PI expression [5]: increased Annexin V expression
C/C1=C/C(=O)O[C@@H]2C[C@@H](CC[C@H](C)/C=C\CC1)O[C@@](O)([C@@H]1CSC(=O)N1)C2 [latrunculin B]								higher electrical deformability index	decreased F-actin expression		
